In patent US10363257B2 (ZENITH EPIGENETICS LTD., priority 2013, dated 2019):

How the values were obtained:
[1] = tested on: c-myc; assay: Inhibition of c-myc expression (mRNA, real-time PCR) in MV4-11 cells; assay type: cell-based; conditions: Human AML MV4-11 cells, 3 h, cMYC mRNA
Method: MV4-11 cells (CRL-9591) were plated at a density of 2.5×10^4 cells per well in 96 well U-bottom plates and treated with increasing concentrations of test compound or DMSO (0.1%) in IMDM media containing 10% FBS and penicillin/streptomycin, and incubated for 3 h at 37° C. Triplicate wells were used for each concentration. Cells were pelleted by centrifugation and harvested using the mRNA Catcher PLUS kit according to manufacturer's instructions. The eluted mRNA isolated was then used in a one-step quantitative real-time PCR reaction, using components of the RNA UltraSense™ One-Step Kit (Life Technologies) together with Applied Biosystems TaqMan® primer-probes for cMYC and Cyclophilin. Real-time PCR plates were run on a VIaTM7 real time PCR machine (Applied Biosystems), data was analyzed, normalizing the Ct values for cMYC to an internal control, prior to determining the fold expression of each sample, relative to the control.

[2] = tested on: human AML MV-4-11 cells; assay: Inhibition of cell proliferation in MV4-11 cells (CellTiter Aqueous One); assay type: cell-based; conditions: MV4-11, 72 h
Method: MV4-11 cells: 96-well plates were seeded with 5×10^4 cells per well of exponentially growing human AML MV-4-11 (CRL-9591) cells and immediately treated with two-fold dilutions of test compounds, ranging from 30 μM to 0.2 μM. Triplicate wells were used for each concentration, as well as a media only and three DMSO control wells. The cells and compounds were incubated at 37° C., 5% CO2 for 72 h before adding 20 μL of the CellTiter Aqueous One Solution (Promega) to each well and incubating at 37° C., 5% CO2 for an additional 3-4 h. The absorbance was taken at 490 nm in a spectrophotometer and the percentage of proliferation relative to DMSO-treated cells was calculated after correction from the blank well. IC50 were calculated using the GraphPad Prism software.

[3] = target: T1, Brd4 bromodomain 1 (BRD4(1)) (Homo sapiens, UniProt O60885); assay: Inhibition of tetra-acetylated histone H4 binding to Brd4 bromodomain 1 (TR-FRET); conditions: tetra-acetylated histone H4 peptide, first bromodomain of Brd4
T1 construct: made in house; host or cells: E. coli BL21(DE3)
Method: Proteins were cloned and overexpressed with a N-terminal 6× His tag, then purified by nickel affinity followed by size exclusion chromatography. Briefly, E.coli BL21(DE3) cells were transformed with a recombinant expression vector encoding N-terminally Nickel affinity tagged bromodomains from Brd2, Brd3, Brd4. Cell cultures were incubated at 37° C. with shaking to the appropriate density and induced overnight with IPTG. The supernatant of lysed cells was loaded onto Ni-IDA column for purification. Eluted protein was pooled, concentrated and further purified by size exclusion chromatography. Fractions representing monomeric protein were pooled, concentrated, aliquoted, and frozen at −80° C. for use in subsequent experiments.
Binding of tetra-acetylated histone H4 and BET bromodomains was confirmed by a Time Resolved Fluorescence Resonance Energy Transfer (TR-FRET) method. N-terminally His-tagged bromodomains (200 nM) and biotinylated tetra-acetylated histone H4 peptide (25-50 nM, Millipore) were incubated in the presence of Europium Cryptate-labeled streptavidin (Cisbio Cat. #610SAKLB) and XL665-labeled monoclonal anti-His antibody (Cisbio Cat. #61HISXLB) in a white 96 well microtiter plate (Greiner). For inhibition assays, serially diluted test compound was added to these reactions in a 0.2% final concentration of DMSO. Final buffer concentrations were 30 mM HEPES pH 7.4, 30 mM NaCl, 0.3 mM CHAPS, 20 mM phosphate pH 7.0, 320 mM KF, 0.08% BSA). After a 2-h incubation at room temperature, the fluorescence by FRET was measured at 665 and 620 nm by a SynergyH4 plate reader (Biotek). The binding inhibitory activity was shown by a decrease in 665 nm fluorescence relative to 620 nm. IC50 values were determined from a dose response curve.

SMILES	IC50 [1]	IC50 [2]	IC50 [3]
CCc1nc2ncc(-c3c(C)noc3C)cc2n1Cc1ccccc1 [compound 128, 4-(1-benzyl-2-ethyl-1H-imidazo[4,5-b]pyridin-6-yl)-3,5-dimethylisoxazole]	300 to 3000 nM	300 to 3000 nM	≤ 300 nM
Cc1noc(C)c1Nc1cc(N)c2nc(C)n(Cc3ccccc3)c2c1 [compound 142, 1-benzyl-N6-(3,5-dimethylisoxazol-4-yl)-2-methyl-1H-benzo[d]imidazole-4,6-diamine]	300 to 3000 nM	3000 to 30000 nM	300 to 3000 nM
Cc1noc(C)c1-c1cnc2[nH]c(=O)n(CC3CCCC3)c2c1 [compound 202, 1-(cyclopentylmethyl)-6-(3,5-dimethylisoxazol-4-yl)-1H-imidazo[4,5-b]pyridin-2(3H)-one]	300 to 3000 nM	300 to 3000 nM	≤ 300 nM
COCCNc1nc2c(N)cc(-c3c(C)noc3C)cc2n1Cc1ccccc1 [compound 139, 1-benzyl-6-(3,5-dimethylisoxazol-4-yl)-N2-(2-methoxyethyl)-1H-benzo[d]imidazole-2,4-diamine]	≤ 300 nM	≤ 300 nM	≤ 300 nM
Cc1noc(C)c1-c1cnc2nc(C)n(CC3CCCCC3)c2c1 [compound 191, 4-(1-(cyclohexylmethyl)-2-methyl-1H-imidazo[4,5-b]pyridin-6-yl)-3,5-dimethylisoxazole]	≤ 300 nM	300 to 3000 nM	≤ 300 nM
Cc1noc(C)c1-c1ccc2c(c1)N(Cc1ccccc1)[C@H](C)C(=O)N2 [compound 174, (R)-4-benzyl-6-(3,5-dimethylisoxazol-4-yl)-3-methyl-3,4-dihydroquinoxalin-2(1H)-one]	300 to 3000 nM	300 to 3000 nM	≤ 300 nM
Cc1noc(C)c1-c1cc(F)c2[nH]c(=O)n(Cc3ccccc3)c2c1 [compound 163, 1-benzyl-6-(3,5-dimethylisoxazol-4-yl)-4-fluoro-1H-benzo[d]imidazol-2(3H)-one]	300 to 3000 nM	300 to 3000 nM	≤ 300 nM
Cc1noc(C)c1-c1cnc2nc(N3CCNCC3)n(Cc3ccccc3)c2c1 [compound 213, 4-(1-benzyl-2-(piperazin-1-yl)-1H-imidazo[4,5-b]pyridin-6-yl)-3,5-dimethylisoxazole]	300 to 3000 nM	300 to 3000 nM	≤ 300 nM
Cc1noc(C)c1-c1cnc2nc(N3CCN(C)CC3)n(Cc3ccccc3)c2c1 [compound 165, 4-(1-benzyl-2-(4-methylpiperazin-1-yl)-1H-imidazo[4,5-b]pyridin-6-yl)-3,5-dimethylisoxazole]	300 to 3000 nM	300 to 3000 nM	≤ 300 nM
Cc1noc(C)c1-c1cnc2[nH]c(=O)n(Cc3ccc(Cl)s3)c2c1 [compound 124, 1-((5-chlorothiophen-2-yl)methyl)-6-(3,5-dimethylisoxazol-4-yl)-1H-imidazo[4,5-b]pyridin-2(3H)-one]	300 to 3000 nM	300 to 3000 nM	≤ 300 nM
Cc1noc(C)c1-c1cc([N+](=O)[O-])c2nc(C)n([C@H](C)c3ccccc3)c2c1 [compound 126, (R)-3,5-dimethyl-4-(2-methyl-4-nitro-1-(1-phenylethyl)-1H-benzo[d]imidazol-6-yl)isoxazole]	≤ 300 nM	300 to 3000 nM	≤ 300 nM
CCNc1nc2c(N)cc(-c3c(C)noc3C)cc2n1CC1CC1 [compound 160, 1-(cyclopropylmethyl)-6-(3,5-dimethylisoxazol-4-yl)-N2-ethyl-1H-benzo[d]imidazole-2,4-diamine]	300 to 3000 nM	300 to 3000 nM	≤ 300 nM
Cc1noc(C)c1-c1cc(N)c2[nH]c(=O)n([C@@H](C)c3ccccc3)c2c1 [compound 178, (S)-4-amino-6-(3,5-dimethylisoxazol-4-yl)-1-(1-phenylethyl)-1H-benzo[d]imidazol-2(3H)-one]	≤ 300 nM	300 to 3000 nM	≤ 300 nM
Cc1noc(C)c1-c1cnc2nc(NCCN(C)C)n(Cc3ccccc3)c2c1 [compound 212, N1-(1-benzyl-6-(3,5-dimethylisoxazol-4-yl)-1H-imidazo[4,5-b]pyridin-2-yl)-N2,N2-dimethylethane-1,2-diamine]	300 to 3000 nM	300 to 3000 nM	≤ 300 nM
Cn1nccc1-c1cnc2[nH]c(=O)n(Cc3ccccc3)c2c1 [compound 171, 1-benzyl-6-(1-methyl-1H-pyrazol-5-yl)-1H-imidazo[4,5-b]pyridin-2(3H)-one]	300 to 3000 nM	300 to 3000 nM	300 to 3000 nM
Cn1nccc1-c1cc(N)c2c(c1)n(Cc1ccccc1)c(=O)n2C [compound 199, 4-amino-1-benzyl-3-methyl-6-(1-methyl-1H-pyrazol-5-yl)-1H-benzo[d]imidazol-2(3H)-one]	300 to 3000 nM	300 to 3000 nM	≤ 300 nM
Cc1noc(C)c1-c1cc([N+](=O)[O-])c2[nH]c(=O)n(CC3CC3)c2c1 [compound 145, 1-(cyclopropylmethyl)-6-(3,5-dimethylisoxazol-4-yl)-4-nitro-1H-benzo[d]imidazol-2(3H)-one]	3000 to 30000 nM	3000 to 30000 nM	≤ 300 nM
Cc1noc(C)c1-c1cnc2nc(NCCO)n(Cc3ccccc3)c2c1 [compound 196, 2-((1-benzyl-6-(3,5-dimethylisoxazol-4-yl)-1H-imidazo[4,5-b]pyridin-2-yl)amino)ethanol]	≤ 300 nM	300 to 3000 nM	≤ 300 nM
Cc1noc(C)c1-c1cc(S(C)(=O)=O)c2nc(C)n(Cc3ccccc3)c2c1 [compound 168, 4-(1-benzyl-2-methyl-4-(methylsulfonyl)-1H-benzo[d]imidazol-6-yl)-3,5-dimethylisoxazole]	300 to 3000 nM	300 to 3000 nM	≤ 300 nM
Cc1noc(C)c1-c1cnc2nc(NC3CCOCC3)n(Cc3ccccc3)c2c1 [compound 170, 1-benzyl-6-(3,5-dimethylisoxazol-4-yl)-N-(tetrahydro-2H-pyran-4-yl)-1H-imidazo[4,5-b]pyridin-2-amine]	≤ 300 nM	≤ 300 nM	≤ 300 nM
Cc1noc(C)c1-c1cnc2[nH]c(=O)n(CC3CCC3)c2c1 [compound 203, 1-(cyclobutylmethyl)-6-(3,5-dimethylisoxazol-4-yl)-1H-imidazo[4,5-b]pyridin-2(3H)-one]	3000 to 30000 nM	3000 to 30000 nM	≤ 300 nM
Cn1nccc1-c1cnc2nc(NC3CCOCC3)n(Cc3ccccc3)c2c1 [compound 176, 1-benzyl-6-(1-methyl-1H-pyrazol-5-yl)-N-(tetrahydro-2H-pyran-4-yl)-1H-imidazo[4,5-b]pyridin-2-amine]	300 to 3000 nM	300 to 3000 nM	300 to 3000 nM
Cc1noc(C)c1-c1cnc2nc(NCc3ccccn3)n(Cc3ccccc3)c2c1 [compound 194, 1-benzyl-6-(3,5-dimethylisoxazol-4-yl)-N-(pyridin-2-ylmethyl)-1H-imidazo[4,5-b]pyridin-2-amine]	≤ 300 nM	≤ 300 nM	≤ 300 nM
Cn1nccc1-c1cc([N+](=O)[O-])c2c(c1)n(Cc1ccccc1)c(=O)n2C [compound 198, 1-benzyl-3-methyl-6-(1-methyl-1H-pyrazol-5-yl)-4-nitro-1H-benzo[d]imidazol-2(3H)-one]	3000 to 30000 nM	3000 to 30000 nM	≤ 300 nM
Cc1noc(C)c1-c1cnc2nc(NC3CCOCC3)n(CC3CCCC3)c2c1 [compound 222, 1-(cyclopentylmethyl)-6-(3,5-dimethylisoxazol-4-yl)-N-(tetrahydro-2H-pyran-4-yl)-1H-imidazo[4,5-b]pyridin-2-amine]	≤ 300 nM	≤ 300 nM	≤ 300 nM
